According to US7253177B2, “Synthesis and antimalarial activity of pyrrolo[3,2-f]quinazoline-1,3-diamine derivatives” (United States of America as Represented by the Secretary of …, priority 2004, dated 2007):
≈ marks a conversion by molar mass, not a printed value.

Tests used:
[1] = system: Plasmodium falciparum W-2 clone (CDC Indochina III); test: In vitro antimalarial study, [3H]hypoxanthine uptake, W-2 clone; type: cell-based
Description: B. Antimalarial Activities: (a). In Vitro Antimalarial Studies. The in vitro assays were conducted by using a modification of the semiautomated microdilution technique of Desjardins et al and Chulay et al.. Four P. falciparum malaria parasite clones, from CDC Indochina III (W-2), CDC Sierra Leone I (D-6), Southeast Asia Isolates (TM91C235) and RCS (Isolates from Brazil) were utilized in susceptibility testing. They were derived by direct visualization and micromanipulation from patient isolates. The W-2 clone is susceptible to mefloquine but resistant to chloroquine, sulfadoxine, pyrimethamine, and quinine, whereas the D-6 clone is naturally resistant to mefloquine but susceptible to chloroquine, sulfadoxine, pyrimethamine and quinine. Test compounds were initially dissolved in DMSO and diluted 400 fold in RPMI 1640 culture medium supplemented with 25 mM Hepes, 32 mM NaHCO3 and 10% Albumax I (Gibco BRL, Grand Island, N.Y.). These solutions were subsequently serially diluted two-fold with a Biomek 1000 (Beckman, Fullerton, Calif.) over 11 different concentrations. The parasites were exposed to serial dilutions of each compound for 48 hrs and incubated at 37° C. with 5% O2, 5% CO2 and 90% N2 prior to the addition of [^3H]hypoxanthine. After a further incubation of 18 hrs, parasite DNA was harvested from each microtiter well using Packard Filtermate 196 Harvester (Meriden, Conn.) onto glass filters. Uptake of [^3H]hypoxanthine was measured with a Packard Topcount Scintillation. Concentration-response data were analyzed by a non-linear regression logistic dose response model and the IC50 values (50% inhibitory concentrations) for each compound were calculated. (Table 3). (b). In Vivo Antimalarial Studies against P. berghei in mice: The in vivo efficacy of the artelinic acid analogs were determined in a modified Thompson test. This test measures the survivability of mice and parasitemia clearance following administration of drug on days 3-5 post infection. In brief, 5×10^6 P. berghei-infected erythrocytes (KBG-173 strain) were inoculated intraperitoneally to female mice that weighed 24-30 g. By day three post-infection, parasitemia ranged from 1.0-3.7%. Each drug, dissolved in 5% sodium bicarbonate, was administered PO twice daily from day 3-5 post-infection. Total doses for each drug ranged from 1.5-384 mg/kg with 8 mice included in each dosage group. The percent suppression of parasitemia in the treated mice compared to the untreated controls was determined for each test compound; the SD-50 (fifty percent suppression dose) and SD-90 were determined from a non-linear regression logistic dose response fit at day 6 parasitemia data. Survival of mice to day 60 post-infection was considered a cure (C). Compounds were considered active (A) when the survival time of the treated mice was greater than twice the control mice, i.e., 12-14 day (Table 4-5). (c). Sporozoite Induced Test Each compound is ground with a mortar & pestle and suspended in 0.5% hydroxyethylcellulose—0.1% Tween 80 for compounds to be administered PO and those given SC are suspended in peanut oil. Each compound is prepared at 3 different dose levels as requested by WRAIR. Compounds are administered either PO or SC to mice once 4 hr before inoculation of sporozoites. Four-week-old male CD-1 mice, purchased from Charles River and weighing 16-17 g, are placed 5 per cage and allowed to acclimate for 4 days before being treated and then inoculated with sporozoites. They are fed food and water ad-lib and maintained at 76° F. with 12 hr light and 12 hr darkness. The cages and water bottles are changed biweekly. The mice are weighed on Days 0, 3 and 6 then biweekly when blood films are taken. Plasmodium yoelii (17×) is used to infect mice that will be used to infect the mosquitoes. Mice are given a single dose of test compound 4 hr before being inoculated intraperitoneally with 2.5×10^5 sporozoites of Plasmodium yoelii on Day 0. […]

[2] = Toxicity study in Aotus monkey; type: in vivo; details: for CBC parameters / body weight change / adverse effects (anorexia, vomiting, diarrhea, behavior): single oral 3 mg/kg; for adverse effects (anorexia, vomiting, diarrhea, behavior): 28 day observation period; for behavior, weight or blood chemistry changes: single oral dose 3 mg/kg
Description: (e). Toxicity Study in Aotus monkey: Protocol: Two malaria double cured Aotus weighing 1027-695 grams respectively received single dose of 3 mg/kg orally of the two compounds 2b and 3e. The monkeys were weighed and pre-bleed for CBC and Chemistry (ALT, BUN, Creatinine) determination, and again three, seven and 15 days post treatment. Signs of toxicity such as anorexia, vomiting, diarrhea or behavior changes were recorded. […] (f). Antimalarial Activity against P. falciparum in Aotus monkey: Protocol: Six (6) malaria naive Aotus lemurinus lemurinus (weigh 787-978 grms) were divided into two groups of two Aotus each plus two controls (MN13177 male and MN 13153 male) and infected with 5×10^6 P. falciparum FVO malaria parasites with 1 ml of an appropriate dilution in RPMI media intravenously on the saphenous vein. When their parasitemia reached 5×10^4 parasites/ul, treatment was started. Giemsa-stained thick blood smears were prepared daily with a prick in the ear marginal vein and parasites enumerated by the Earle and Perez method. Group 1 Aotus received 3e at 1 mg/kg once a day×three days. Group 2 Aotus received 2b at 1 mg/kg once a day×three days. The monkeys were weight and pre-bled for CBC and Chemistry (ALT, BUN, Creatinine) determination, and on day 4 post-treatmetne (PT). Bleedings for Pk determinations were carried out on day 1 PT at time 0, 1 hr, 7:30 hr and 24 hr PT. Group 1 (receiving 3e) animals cleared the parasitemias on day 3 post treatment (PT) and remained negative up to 100 days PT. In group 2 (receiving 2b), one animal cleared on day 3 PT and the other one on day 4 PT remaining negative up to 100 days PT. […] (g). Antimalarial Activity against P. vivax in Aotus monkey: Protocol: Fourteen (14) P. falciparum cured Aotus l. lemurinus monkeys (male and female) (weight 700-925 grms) were infected intravenously with 5×10^6 parasites of the P. vivax AMRU-1 strain diluted in RPMI media obtained from a donor and divided into two larger groups of 6 monkeys each (Group I and Group II) (2 monkeys per dose level), that received 3e and 6 monkeys (2 monkeys per dose level) that received 2b daily at 0.5, 1.0 and 3 mg/kg/day for a total of 3 days. Two monkeys were left has untreated controls. Treatment started when parasitemia reached 5,000 parasites×cc/mm on day 6 PI. Daily food intake was documented. Daily Giemsa-stained thick blood smears were prepared from a prick in the marginal ear vein and parasites enumerated by the Earle and Perez method. The animals were weighed at weekly intervals. Blood samples for Pk determination were collected at the following time points as follows: Day 0: CBC and chemistry panel (ALT. Creatinine and BUN); Day 4: CBC and chemistry Panel. CBC and chemistry panels were done the day prior to first dose and 24 hours after last dose and at weekly intervals thereafter. […] The other monkeys received 1 and 3 mg/kg of 3e remained negative until day 100 PT. In Group II, all monkeys except for one that received 3 mg/kg of 2b failed treatment and were retreated on day 3 PT with 3e at either 0.25, 0.5 or 1 mg/kg for three days. In the monkeys that received re-treatment at 0.25 mg/kg, one cleared on day 4 PT but needed to be treated with Mefloquine on day 8 PT due to a low platelet count. The other animals that had not been cleared by day 6 PT were treated with Mefloquine. […] P. vivax is known to be very drug resistant to antifolates. (h). Presumptive Causal Prophylactic Test against P. cynomolgi in Rhesus monkey: Protocol: […]

Structure (SMILES)	IC50 W-2 ([1]; P. falciparum W-2 clone) [ng/mL]	CBC parameters [2]	body weight change [2]	adverse effects (anorexia, vomiting, diarrhea, behavior) [2]	behavior, weight or blood chemistry changes [2]	IC50 ([1]; Plasmodium falciparum, read-out: IC50 W-2) [ng/mL]
CCOC(=O)Nc1nc(NC(=O)OCC)c2c(ccc3c2ccn3Cc2ccccc2C(F)(F)F)n1 [Compound 2b]	127.80 (≈ 255 nM)	remained within normal ranges	No significant changes in body weight	No adverse effects	no behavior, weight or blood chemistry changes	–
CC(=O)N(C(C)=O)c1nc(N(C(C)=O)C(C)=O)c2c(ccc3c2ccn3Cc2ccccc2C(F)(F)F)n1 [Compound 3e, 1,3-Bis(diacetylamino)-7-(2-trifluoromethyl)benzyl-7H-pyrrolo[3,2-f]quinazoline]	–	remained within normal ranges	No significant changes in body weight	No adverse effects	no behavior, weight or blood chemistry changes	0.0752 (≈ 0.143 nM)
